From patent publication US6825192B1, “Heterodiazinone derivatives” (Eisai Co., Ltd., priority 1999, dated 2004)
Counter-ions that a name gives are not always drawn.

What was measured:
[1] = tested on: experimental animal model with cerebral ischemia; conditions: Sheardown et al., Science, 247, 571, 1990; cited from earlier work
[2] = tested on: AMPA receptor; experiment: Inhibitory action on AMPA-inducing inflow of calcium into nerve cells (Fura2-AM); format: cell-based; conditions: rat cerebral cortex nerve cells on astrocytes, 1 μM MK-801, stimulated by 2 μM AMPA, fluorescence 340/380 nm
[3] = tested on: AMPA receptor channels; experiment: Inhibitory action on AMPA-inducing electric current in nerve cell membrane (patch clamp); format: cell-based; conditions: cultured rat cerebral cortex nerve cells, membrane potential -70 mV, 10 μM AMPA
Method: The action on AMPA receptor channels was examined by a patch clamp method.
The cerebral cortex was excised from the brain of a rat on day 18 after birth and treated with trypsin and DNase, whereby the cells were dispersed. The cells were allowed to float on DMEM containing 10% serum, inoculated into a culture bottle, and their astrocytes were grown. The astrocytes were re-dispersed with trypsin and inoculated onto each well on a 12-well plate.
After it was confirmed that the bottom of each well was completely covered with the astrocytes after culture for 1 week, a cover glass treated with poly-1-lysine was placed thereon, and cerebral cortex nerve cells dispersed in the same manner as above were further inoculated thereon. After 24 hours, the medium was exchanged with fresh one, and after culture for further 1 week, the medium was exchanged with a medium containing 1 μM MK-801.
The membrane potential of the cerebral cortex nerve cells cultured for 9 days or more was fixed at −70 mV by a patch clamp method, and after a test compound was added, 10 μM AMPA was applied as a stimulus to the cells. By using, as the control, electric current flowing via the membrane into the cells in the absence of the test compound, the action of the compound in Example 1 was examined.

[4] = tested on: male ddy mice; experiment: Inhibitory action on AMPA-inducing spasm; format: in vivo; conditions: intravenous, 5 minutes before 1.5 nmol AMPA into the ventricle
Method: A test compound or its solvent only was intravenously injected into 4-week-old male ddy mice, and 5 minutes later, 1.5 nmol AMPA was administered into the ventricle thereby inducing spasm. The action of the test chemical was judged by the presence or absence of spasm, and its dose causing 80% or more inhibition was regarded as an effective dose.

[5] = tested on: male SD rat; experiment: Reduction of infarct in a model with occlusion of midbrain/cerebrum arteries; format: in vivo; conditions: from 30 min after occlusion, 6 h, vs solvent only
Method: The cervical region of a 8-week-old male SD rat was cut across the midline, and a right carotid artery was removed. An operation nylon thread (standard 4-0) was inserted into an external carotid artery, and blood stream in the midbrain/cerebrum arteries in the skull was occluded by the nylon thread, whereby a model with occlusion of midbrain/cerebrum arteries was prepared. Thirty minutes after the midbrain/cerebrum arteries were occluded, a test compound or its solvent only was once administered intravenously into the rat, and thereafter, it was continuously administered intravenously at a constant injection rate. The body temperature was controlled at 37.5 to 38.0° from the initiation of administration to the termination of administration. Six hours after the initiation of administration, the brain was excised from the rat and immediately cut into brain sections of 2 mm in thickness, which were then stained with 2% TTC solution. An image of these stained sections was incorporated into NIH image and the area of non-stained portions showing infarct loci was measured, and thereafter, the volume of the infarct loci was calculated.

[6] = tested on: rat model with cerebral ischemia; conditions: Le Peillet et al., Brain Research, 571, 115, 1992; cited from earlier work

## NS(=O)(=O)c1cccc2c1c([N+](=O)[O-])cc1nc(O)c(O)nc12 [NBQX, 2,3-dihydroxy-6-nitro-7-sulfamoyl-benzo[f-]quinoxaline]
[1]
  effect in experimental animal model with cerebral ischemia: effective

## O=C1COC(c2ccccn2)=NN1c1ccccc1 [Example 1, 2-(2-Pyridyl)-4-phenyl-4H-1,3,4-oxadiazine-5(6H)-one hydrochloride]
[2]
  IC50: 11.8 µM
[3]
  IC50: 12.3 µM
[4]
  effective dose (dose causing 80% or more inhibition of spasm): 30 mg/kg
[5]; single i.v. 6.6 mg/kg then continuous i.v. 10 mg/kg/h
  reduction of infarct loci in the cerebral cortex: 54%
[5]; single i.v. 20 mg/kg then continuous i.v. 30 mg/kg/h
  reduction of infarct loci in the cerebral cortex: 74%

## CC1=NN=C(c2ccc(N)cc2)c2cc3c(cc2C1)OCO3 [GYKI 52466, 1-(amino-phenyl)-4-methyl-7,8-methylenedioxy-5H-2,3-benzoazepine hydrochloride, reference compound]
[2]
  IC50: 9.02 µM
[6]
  nerve-protecting action in rat model with cerebral ischemia: exerts a nerve-protecting action
